Test results as given in patent US20260083851A1 (AVILAR THERAPEUTICS, INC., priority 2022, published 2026).

The compounds below were run against T1, ASGP receptor (biotinylated ASGPR) (Homo sapiens, UniProt P07306). Conditions: SPR, Biacore 8K, 25° C.; Table 1A; read-out: ASGPR KD.
T1 construct: biotin (biotinylated)
T1 sequence (P07306 1-291): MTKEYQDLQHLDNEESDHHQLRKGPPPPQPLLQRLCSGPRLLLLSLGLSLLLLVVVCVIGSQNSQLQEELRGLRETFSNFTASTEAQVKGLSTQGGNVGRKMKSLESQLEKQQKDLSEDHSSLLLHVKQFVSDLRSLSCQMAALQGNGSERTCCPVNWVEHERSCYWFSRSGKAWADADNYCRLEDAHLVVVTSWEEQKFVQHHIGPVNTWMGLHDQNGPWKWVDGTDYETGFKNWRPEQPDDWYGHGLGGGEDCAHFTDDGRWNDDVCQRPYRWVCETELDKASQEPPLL
Assay type: binding

Row | Kd [µM] | Structure (SMILES)
1 | < 10 | O=C(NC[C@H]1OC[C@H](Nc2cncc(C(F)(F)F)n2)[C@@H](O)[C@H]1O)c1ccc2ncncc2c1 [A17, N-(((2R,3R,4R,5S)-3,4-dihydroxy-5-((6-(trifluoromethyl)pyrazin-2-yl)amino)tetrahydro-2H-pyran-2-yl)methyl)quinazoline-6-carboxamide]
2 | < 10 | O=C(O)CNC(COCCC(=O)NCCOCCOCCOCCO[C@@H]1O[C@H](CO)[C@H](O)[C@H](O)[C@H]1Nc1cncc(C(F)(F)F)n1)COCCC(=O)NCCOCCOCCOCCO[C@@H]1O[C@H](CO)[C@H](O)[C@H](O)[C@H]1Nc1cncc(C(F)(F)F)n1 [A35, (1,35-bis(((2R,3R,4R,5R,6R)-4,5-dihydroxy-6-(hydroxymethyl)-3-((6-(trifluoromethyl)pyrazin-2-yl)amino)tetrahydro-2H-pyran-2-yl)oxy)-13,23-dioxo-3,6,9,16,20,27,30,33-octaoxa-12,24-diazapentatriacontan-18-yl)glycine]
3 | < 10 | OC[C@H]1O[C@H](c2ccccc2)[C@H](Nc2cncc(C(F)(F)F)n2)[C@@H](O)[C@H]1O [A105, (2R,3R,4R,5R,6R)-2-(hydroxymethyl)-6-phenyl-5-((6-(trifluoromethyl)pyrazin-2-yl)amino)tetrahydro-2H-pyran-3,4-diol]
4 | < 10 | O[C@@H]1[C@H](O)[C@@H](Nc2cncc(C(F)(F)F)n2)CO[C@@H]1CNc1ncccn1 [A19, (2R,3R,4R,5S)-2-((pyrimidin-2-ylamino)methyl)-5-((6-(trifluoromethyl)pyrazin-2-yl)amino)tetrahydro-2H-pyran-3,4-diol]
5 | < 10 | O=C(NC[C@H]1OC[C@H](Nc2cncc(C(F)(F)F)n2)[C@@H](O)[C@H]1O)c1n[nH]c2ccccc12 [A44, N-(((2R,3R,4R,5S)-3,4-dihydroxy-5-((6-(trifluoromethyl)pyrazin-2-yl)amino)tetrahydro-2H-pyran-2-yl)methyl)-1H-indazole-3-carboxamide]
6 | < 10 | O=C(O)c1ccc(N2CCC(CN3CCN(C[C@H]4OC[C@H](Nc5cncc(C(F)(F)F)n5)[C@@H](O)[C@H]4O)CC3)CC2)cc1 [A31, 4-(4-((4-(((2R,3R,4R,5S)-3,4-dihydroxy-5-((6-(trifluoromethyl)pyrazin-2-yl)amino)tetrahydro-2H-pyran-2-yl)methyl)piperazin-1-yl)methyl)piperidin-1-yl)benzoic acid]
7 | < 10 | NC[C@H]1OC[C@H](Nc2cccc(C(F)(F)F)n2)[C@@H](O)[C@H]1O [A98, (2R,3R,4R,5S)-2-(aminomethyl)-5-((6-(trifluoromethyl)pyridin-2-yl)amino) tetrahydro-2H-pyran-3,4-diol]
8 | 10 to 100 | OC[C@H]1O[C@@H](c2ccccc2)[C@H](Nc2cncc(C(F)(F)F)n2)[C@@H](O)[C@H]1O [A109, (2R,3R,4R,5R,6S)-2-(hydroxymethyl)-6-phenyl-5-((6-(trifluoromethyl)pyrazin-2-yl)amino)tetrahydro-2H-pyran-3,4-diol]
9 | < 10 | O[C@@H]1[C@H](O)[C@@H](Nc2cncc(C(F)(F)F)n2)CO[C@@H]1CNc1ncncn1 [A85, (2R,3R,4R,5S)-2-(((1,3,5-triazin-2-yl)amino)methyl)-5-((6-(trifluoromethyl)pyrazin-2-yl)amino)tetrahydro-2H-pyran-3,4-diol]
10 | < 10 | O=C(NC[C@H]1OC[C@H](Nc2cncc(C(F)(F)F)n2)[C@@H](O)[C@H]1O)C1C[C@@H]2CC[C@H]1C2 (stereo partly drawn) [A18, (1S,4R)—N-(((2R,3R,4R,5S)-3,4-dihydroxy-5-((6-(trifluoromethyl)pyrazin-2-yl)amino)tetrahydro-2H-pyran-2-yl)methyl)bicyclo[2.2.1]heptane-2-carboxamide]
11 | < 10 | O=C(NC[C@H]1OC[C@H](Nc2cncc(C(F)(F)F)n2)[C@@H](O)[C@H]1O)c1cncnc1 [A25, N-(((2R,3R,4R,5S)-3,4-dihydroxy-5-((6-(trifluoromethyl)pyrazin-2-yl)amino)tetrahydro-2H-pyran-2-yl)methyl)pyrimidine-5-carboxamide]

Same assay, conditions: SPR, Biacore 8K, 25° C.; Table 1B; read-out: ASGPR Kd

Row | Kd [µM] | Structure (SMILES)
12 | < 10 | O[C@@H]1[C@@H](Nc2cncc(C(F)(F)F)n2)CNC[C@@H]1O [A150, (3S,4R,5S)-5-((6-(trifluoromethyl)pyrazin-2-yl)amino)piperidine-3,4-diol]
13 | 10 to 100 | COc1cncnc1N[C@H]1CO[C@H](CO)[C@H](O)[C@@H]1O [A156, (2R,3R,4R,5S)-2-(hydroxymethyl)-5-((5-methoxypyrimidin-4-yl)amino)tetrahydro-2H-pyran-3,4-diol]
14 | < 10 | OC[C@H]1OC[C@H](Nc2cncc(Cl)n2)[C@@H](O)[C@H]1O [A147, (2R,3R,4R,5S)-5-((6-chloropyrazin-2-yl)amino)-2-(hydroxymethyl) tetrahydro-2H-pyran-3,4-diol]

Same assay, conditions: SPR, Biacore 8K, 25° C.; Table 1C; read-out: ASGPR KD

Row | Kd [µM] | Structure (SMILES)
15 | < 10 | O=C(O)c1ccc(CN2CCN(C[C@H]3OC[C@H](Nc4cncc(C(F)(F)F)n4)[C@@H](O)[C@H]3O)CC2)nn1 [A205, 6-((4-(((2R,3R,4R,5S)-3,4-dihydroxy-5-((6-(trifluoromethyl)pyrazin-2-yl)amino)tetrahydro-2H-pyran-2-yl)methyl)piperazin-1-yl)methyl)pyridazine-3-carboxylic acid]
16 | < 10 | CC[C@]1(COc2ccc(C(=O)O)nn2)O[C@H](O)[C@H](NC(=O)C(F)(F)F)[C@@H](O)[C@H]1O [A313]
17 | < 10 | O[C@@H]1[C@H](O)[C@@H](Oc2cccc(C(F)(F)F)n2)CO[C@@H]1CN1CCN(c2ccccc2)CC1 [A242]
18 | < 10 | O[C@@H]1[C@H](O)[C@@H](Oc2cccc(C(F)(F)F)n2)CO[C@@H]1c1cn(C2CCNCC2)nn1 [A224, (2R,3R,4S,5S)-2-(1-(piperidin-4-yl)-1H-1,2,3-triazol-4-yl)-5-((6-(trifluoromethyl)pyridin-2-yl)oxy)tetrahydro-2H-pyran-3,4-diol]
19 | < 10 | C[C@H]1O[C@H](c2cccc3ccccc23)[C@H](Oc2cccc(C(F)(F)F)n2)[C@@H](O)[C@H]1O [A342]
20 | < 10 | CC(C)(C)OC(=O)N1CCC2CN(C[C@H]3OC[C@H](Oc4cccc(C(F)(F)F)n4)[C@@H](O)[C@H]3O)CC2C1 (stereo partly drawn) [A271]
21 | < 10 | OCc1cnc(OC[C@H]2OC[C@H](Nc3cncc(C(F)(F)F)n3)[C@@H](O)[C@H]2O)nc1 [A222, (2R,3R,4R,5S)-2-(((5-(hydroxymethyl)pyrimidin-2-yl)oxy)methyl)-5-((6-(trifluoromethyl)pyrazin-2-yl)amino)tetrahydro-2H-pyran-3,4-diol]
22 | < 10 | O[C@@H]1[C@H](O)[C@@H](Oc2cccc(C(F)(F)F)n2)CO[C@@H]1COc1cncnc1 [A289]
23 | < 10 | O=C(O)c1ccc(-c2ccc(OC[C@H]3OC[C@H](Nc4cncc(C(F)(F)F)n4)[C@@H](O)[C@H]3O)cc2)cc1 [A215, 4′-(((2R,3R,4R,5S)-3,4-dihydroxy-5-((6-(trifluoromethyl)pyrazin-2-yl)amino)tetrahydro-2H-pyran-2-yl)methoxy)-[1,1′-biphenyl]-4-carboxylic acid]
24 | < 10 | CC(C)(C)OC(=O)N1CC2CN(C[C@H]3OC[C@H](Nc4cncc(C(F)(F)F)n4)[C@@H](O)[C@H]3O)CC21 (stereo partly drawn) [A230, tert-butyl 3-(((2R,3R,4R,5S)-3,4-dihydroxy-5-((6-(trifluoromethyl)pyrazin-2-yl)amino)tetrahydro-2H-pyran-2-yl)methyl)-3,6-diazabicyclo [3.2.0] heptane-6-carboxylate]
25 | < 10 | O=C(O)c1c(F)cc(CN2CCN(C[C@H]3OC[C@H](Nc4cncc(C(F)(F)F)n4)[C@@H](O)[C@H]3O)CC2)cc1F [A251]
26 | < 10 | NCCOCCOCC(=O)NC[C@H]1OC[C@H](Oc2cccc(C(F)(F)F)n2)[C@@H](O)[C@H]1O [A326]
27 | < 10 | O[C@@H]1[C@H](O)[C@@H](Nc2cncc(C(F)(F)F)n2)CO[C@@H]1c1cn(C2CCNCC2)nn1 [A200, (2R,3R,4R,5S)-2-(1-(piperidin-4-yl)-1H-1,2,3-triazol-4-yl)-5-((6-(trifluoromethyl)pyrazin-2-yl)amino)tetrahydro-2H-pyran-3,4-diol]
28 | < 10 | N#Cc1ccc(OC[C@H]2OC[C@H](Nc3cncc(C(F)(F)F)n3)[C@@H](O)[C@H]2O)nn1 [A188, 6-(((2R,3R,4R,5S)-3,4-dihydroxy-5-((6-(trifluoromethyl)pyrazin-2-yl)amino)tetrahydro-2H-pyran-2-yl)methoxy)pyridazine-3-carbonitrile]
29 | < 10 | Nc1ccc(OC[C@H]2OC[C@H](Oc3cccc(C(F)(F)F)n3)[C@@H](O)[C@H]2O)nn1 [A323]
30 | < 10 | COC(=O)/C=C/[C@H]1O[C@H](C)[C@H](O)[C@H](O)[C@H]1Oc1cccc(C(F)(F)F)n1 [A333]
31 | < 10 | COC(=O)c1ccc(OC[C@H]2O[C@H](C)[C@H](O)[C@H](O)[C@H]2Oc2cccc(C(F)(F)F)n2)nn1 [A315]

Same assay, conditions: SPR, Biacore 8K, 25° C.; Table 1D; read-out: ASGPR KD

Row | Kd [µM] | Structure (SMILES)
32 | < 10 | O=C(O)c1ccc(-c2ccc(C(=O)N3C[C@H](Nc4cncc(C(F)(F)F)n4)[C@@H](O)[C@@H](O)C3)cc2)cc1 [A383]
33 | < 10 | O[C@@H]1[C@H](O)[C@@H](Nc2cncc(C(F)(F)F)n2)CO[C@@H]1COc1ccc(C2CNC2)nn1 [A420]
34 | 10 to 100 | O=C(OCc1ccccc1)N1C[C@H](O)[C@H](O)[C@@H]([S@@+]([O-])c2cccc(C(F)(F)F)n2)C1 [A354]

Same assay, conditions: SPR, Biacore 8K, 25° C.; Table 1E, numeric bound; read-out: ASGPR KD

Row | Kd [µM] | Structure (SMILES)
35 | > 30 | C[C@H]1O[C@H](CO)[C@H](Oc2cncc(C(F)(F)F)n2)[C@@H](O)[C@H]1O [A436]

Same assay, conditions: SPR; Table 2; read-out: ASGPR SPR Binding KD

Row | Kd [µM] | Structure (SMILES)
36 | < 0.1 | CC1(C)C(=O)c2ccc(-c3cnc(N4CCN5C(=O)N(CCCNC(=O)c6ccc7c(c6)C(F)(F)c6cc(C(=O)NC[C@H]8OC[C@H](Nc9cncc(C(F)(F)F)n9)[C@@H](O)[C@H]8O)ccc6-7)C[C@@H]5C4)nc3)nc2N1Cc1cccnc1C#N [compound 20]
